Experimental data reported in patent publication US12245589B2, “Omega-alicyclic tunicamycins and analogs” (priority 2022, dated 2025).
“Also recorded” adds a separate entry of the source.

Experiments:
[1] = system: Mycobacterium avium subsp. paratuberculosis (MAP) strain K-10; test: Antibiotic disc assay on agar plates, MAP strain K-10; conditions: antibiotic discs on the plate for 13 days, FIG. 15C
[2] = system: Mycobacterium smegmatis biofilm; test: Microtiter plate bioassay, biofilm formation (MBFC); type: cell-based; conditions: M. smegmatis grown in TYG for 6 days at 37° C., FIG. 16
Experimental: (§1) In each plate, left two columns are treated with DMSO, center two columns are treated with tunicamycin; right two panels are treated with TunR2. The concentration in μg/mL is indicated on the right. Arrows show the concentration at which there is mycobacterial growth inhibition (MIC), or biofilm formation is blocked (MBFC).
(§2) Tunicamycins are known to inhibit the biosynthesis of bacterial cell wall, for example by blocking the peptidoglycan and teichoic layers. The Mycobacterium genus is characterized by unusual and complex cell walls composed of three distinct layers, peptidoglycan (PG), arabinogalactan (AG) and mycolic acids (MA), which are well characterized targets for antimycobacterial drugs (K A Abrahams & G S Besra, 2018, “Mycobacterial cell wall biosynthesis: a multifaceted antibiotic target,” Parasitology 145: 116-133). The MA and AG are also components of mycobacterial biofilms, an extracellular matrix with various pathogenic functions.

Mycobacterium smegmatis = test: Microtiter plate bioassay, mycobacterial growth inhibition (MIC); type: cell-based; conditions: M. smegmatis grown in TYG for 6 days at 37° C., FIG. 16
Experimental: as §1
The inventors have shown that tunicamycins (including the modified TunR1, TunR2, and OAT-type tunicamycins) have potent antimycobacterial activity (for example, MIC 0.5 μg·mL^−1 for TunR2 against M. smegmatis, as shown in FIG. 16.
as §2

[3] = system: cultured mammalian cell lines (HEK293, HepG2, Raji cells); conditions: cell line not given; cited from earlier work
[4] = system: Mycobacterium tuberculosis (Mtb); conditions: compared with natural tunicamycin; cited from earlier work

| Compound | activity on MAP strain K-10 [1] | also measured |
| --- | --- | --- |
| CC(C)CCOc1ccc(NC(=S)Nc2ccc(OCCC(C)C)cc2)cc1 [thiocarlide] | resistant |  |
| tunicamycin | perform well | Minimal Biofilm Formation Concentration, MBFC [2]: 1 µg/mL; MIC (mycobacterial growth inhibition) (Mycobacterium smegmatis): 2 µg/mL; LD50 [3]: > 400 µg/mL |
| CCCCCCCCC1=C(CCCCCCCC(=O)O)C1 [sterulic acid] | resistant |  |
| CO/N=C(\C(=O)N[C@@H]1C(=O)N2C(C(=O)[O-])=C(C[n+]3cccc4c3CCCC4)CS[C@H]12)c1csc(N)n1 [cefquinome] | resistant; also recorded: low inhibitions at high concentrations |  |
| CC1(C)S[C@@H]2[C@H](NC(=O)C(C(=O)O)c3ccccc3)C(=O)N2[C@H]1C(=O)O (stereo partly shown) [carbenicillin] | resistant | activity on MAP strain K-10 ([1]; listed as Carbenicillin): low inhibitions at high concentrations |
| CCCCCCCCC(=O)N[C@H]1[C@H](O[C@H]2O[C@H](CO)[C@@H](O)[C@H](O)[C@H]2NC(=O)CCCCCCCC)O[C@H](C[C@@H](O)[C@H]2O[C@@H](n3ccc(=O)[nH]c3=O)[C@H](O)[C@@H]2O)[C@H](O)[C@@H]1O [Tun-9,9] |  | potency relative to natural tunicamycin against Mtb [4]: 5 times |
